We go through 24 compounds from patent publication US20240317689A1, “POTASSIUM CHANNEL MODULATOR, COMPOSITION AND APPLICATION” (NEUSHEN THERAPEUTICS (SHANGHAI) CO., LTD, priority 2021, published 2024).

The target of this assay is T1, KCNQ2/3 potassium ion channel (Homo sapiens, UniProt O43525+O43526).
T1 construct: expressed in transfected cells; host or cells: CHO cells (hKCNQ-CHO)
The assay is described as follows: KCNQ2/3 potassium ion channel activation assay (whole-cell patch clamp, hKCNQ-CHO cells). The note with it: read-out: Enhancment % (current enhancement multiple); for activation at 0.05 µM: test concentration 0.05 μM; for activation at 3 µM: test concentration 3 μM. It counts as cell-based. On the procedure:
Example 64: KCNQ2/3 Potassium Ion Channel Activation Assay
hKCNQ-CHO cells were cultured at 37° C. in a humidified environment of 5% CO2.
• 2.1. Extracellular fluid (mM): NaCl 145, KCl 4, CaCl2 2, MgCl2 1, Glucose 10, HEPES 10. The pH value of the extracellular fluid was adjusted to 7.4 with NaOH, and the osmotic pressure was adjusted to about 295 mOsm. • 2.2. Intracellular fluid (mM (mmol/L)): KOH 31.25, KCl 120, EGTA 10, MgCl2 1.75, CaCl2 5.374, HEPES 10, Na-ATP 4. The pH value of the intracellular fluid was adjusted to 7.4 with HCl, and the osmotic pressure was adjusted to about 285 mOsm. • 2.3. The extracellular fluid should be prepared once a week, and the intracellular fluid should be stored at −20° C. after preparation.
The model positive reference compound Retigabine (RTG) was dissolved with 100% DMSO and configured as a 10 mM working solution. The test compounds were dissolved with 100% DMSO and configured as a 10 mM working solution. The final concentration of DMSO in the test solution should be less than 0.3%.
Whole-cell patch clamp was performed at room temperature. The electrical signals recorded with the EPC 10 USB amplifier (HEKA Elektronik, Germany) were filtered by a 3 kHz low-pass filter, and finally recorded in PatchMaster 2×90.5 software (HEKA Elektronik, Germany). At this step, the quality control standard was that the cell high-resistance sealing was greater than 500 MOhms, and the detection current was greater than 0.4 nA.
The recording electrodes were pulled out and polished with a vertical puller (NARISHIGE PC-10, Japan) using a borosilicate glass capillary (GC150tF-10, Harvard Apparatus Co., UK). At this step, the quality control standard was that the electrode resistance was between 2 MΩ and 5 MΩ.
During the recording process of the whole-cell patch clamp, a continuous perfusion system (BT100-2J, LongerPump, China) was used to continuously perfuse the extracellular fluid. The perfusion system was installed on the stage of an upright microscope (FN-S2N, Nikon, Japan), and the perfusion head was manually positioned under the microscope.
The voltage command for detecting the amplitude of hKCNQ current was as follows: the cell stepped from the clamping potential of −80 mV to −30 mV, and held for 1500 ms; and then the clamping voltage was lowered to −120 my and held for 500 ms; finally, the voltage returned to the clamping potential of −80 mV. The detection voltage command was repeated every 15,000 milliseconds, and the command was continuously executed during the compound test. The quality control standard for compound action stability was the current amplitude under 5 consecutive voltage commands, and the coefficient of variation of the current amplitude was <5%.
Data analysis was performed using PatchMaster 2×90.5 software (HEKA Elektronik, Germany) and Excel 2013 (Microsoft, USA) software. For each cell's patch clamp recording, the amplitude of the hKCNQ channel current (Itest) corresponding to the test compound concentration should be obtained. The enhanced channel current was obtained by subtracting the cell's original channel current (Icontrol) from Itest and dividing by Icontrol to obtain the current enhancement multiple. That is, the current enhancement multiple (Enhancment %)=(Itest −Icontrol)/Icontrol[…].

Molecules are shown by their SMILES.

As to `COc1ccc2c(c1)CCCN(c1cc(C)c(NC(=O)CC(C)(C)C)c(C)c1)C2` [Compound 001, N-(4-(7-methoxy-1,3,4,5-tetrahydro-2H-benzo[c]azepin-2-yl)-2,6-dimethylphenyl)-3,3-dimethylbutanamide], the activation at 0.05 µM lay within 50 to 100% and the activation at 3 µM lay in the range of 50 to 100%.
With `CCOc1ccc2c(c1)CCCN(c1cc(C)c(NC(=O)CC(C)(C)C)c(C)c1)C2` [Compound 002, N-(4-(7-ethoxy-1,3,4,5-tetrahydro-2H-benzo[c]azepin-2-yl)-2,6-dimethylphenyl)-3,3-dimethylbutanamide], the activation at 0.05 µM is less than 50% and the activation at 3 µM lay in the range of 50 to 100%.
Regarding `Cc1cc(N2CCCc3cc(OC(F)F)ccc3C2)cc(C)c1NC(=O)CC(C)(C)C` [Compound 005, N-(4-(7-(difluoromethoxy)-1,3,4,5-tetrahydro-2H-benzo[c]azepin-2-yl)-2,6-dimethylphenyl)-3,3-dimethylbutanamide], the activation at 0.05 µM was less than 50% and the activation at 3 µM is more than 100%.
On to `Cc1cc(N2CCCc3cc(OC(F)(F)F)ccc3C2)cc(C)c1NC(=O)CC(C)(C)C` [Compound 006, N-(2,6-dimethyl-4-(7-(trifluoromethoxy)-1,3,4,5-tetrahydro-2H-benzo[c]azepin-2-yl)phenyl)-3,3-dimethylbutanamide], for which the activation at 3 µM is more than 100%.
For the compound `Cc1cc(N2CCCc3cc(OCC(F)(F)F)ccc3C2)cc(C)c1NC(=O)CC(C)(C)C` [Compound 007, N-(2,6-dimethyl-4-(7-(2,2,2-trifluoroethoxy)-1,3,4,5-tetrahydro-2H-benzo[c]azepin-2-yl)phenyl)-3,3-dimethylbutanamide], the activation at 3 µM is more than 100%.
Still for that read-out and setting: for `Cc1cc(N2CCCc3cc(OC4CC4)ccc3C2)cc(C)c1NC(=O)CC(C)(C)C` [Compound 009, N-(4-(7-cyclopropoxy-1,3,4,5-tetrahydro-2H-benzo[c]azepin-2-yl)-2,6-dimethylphenyl)-3,3-dimethylbutanamide] the value was more than 100%.
`Cc1cc(N2CCCc3cc(OC4CCC4)ccc3C2)cc(C)c1NC(=O)CC(C)(C)C` [Compound 010, N-(4-(7-cyclobutoxy-1,3,4,5-tetrahydro-2H-benzo[c]azepin-2-yl)-2,6-dimethylphenyl)-3,3-dimethylbutanamide]: the activation at 0.05 µM was more than 100% and the activation at 3 µM was more than 100%.
Regarding `Cc1cc(N2CCCc3cc(OC4CCCCC4)ccc3C2)cc(C)c1NC(=O)CC(C)(C)C` [Compound 012, N-(4-(7-(cyclohexyloxy)-1,3,4,5-tetrahydro-2H-benzo[c]azepin-2-yl)-2,6-dimethylphenyl)-3,3-dimethylbutanamide], the activation at 3 µM was more than 100%.
The same measure, in the same setting: for `Cc1cc(N2CCCc3cc(OC4COC4)ccc3C2)cc(C)c1NC(=O)CC(C)(C)C` [Compound 013, N-(2,6-dimethyl-4-(7-(oxetan-3-yloxy)-1,3,4,5-tetrahydro-2H-benzo[c]azepin-2-yl)phenyl)-3,3-dimethylbutanamide] the value was more than 100%.
In the case of `CSc1ccc2c(c1)CCCN(c1cc(C)c(NC(=O)CC(C)(C)C)c(C)c1)C2` [Compound 014, N-(2,6-dimethyl-4-(7-(methylthio)-1,3,4,5-tetrahydro-2H-benzo[c]azepin-2-yl)phenyl)-3,3-dimethylbutanamide], the activation at 0.05 µM was less than 50% and the activation at 3 µM lay in the range of 50 to 100%.
Consider `Cc1cc(N2CCCc3cc(S(C)(=O)=O)ccc3C2)cc(C)c1NC(=O)CC(C)(C)C` [Compound 015, N-(2,6-dimethyl-4-(7-(methylsulfonyl)-1,3,4,5-tetrahydro-2H-benzo[c]azepin-2-yl)phenyl)-3,3-dimethylbutanamide], for which the activation at 3 µM was more than 100%.
For the compound `Cc1cc(N2CCC(C)(C)c3ccccc3C2)cc(C)c1NC(=O)CC(C)(C)C` [Compound 017, N-(4-(5,5-dimethyl-1,3,4,5-tetrahydro-2H-benzo[c]azepin-2-yl)-2,6-dimethylphenyl)-3,3-dimethylbutanamide], the activation at 0.05 µM is less than 50% and the activation at 3 µM lay within 50 to 100%.
As to `Cc1cc(N2CCC3(CC3)c3cc(F)ccc3C2)cc(C)c1NC(=O)CC(C)(C)C` [Compound 022, N-(4-(7-fluoro-3,4-dihydrospiro[benzo[c]azepine-5,1′-cyclopropan]-2(1H)-yl)-2,6-dimethylphenyl)-3,3-dimethylbutanamide], the activation at 3 µM is 50 to 100%.
On to `Cc1cc(N2CCNc3cc(F)ccc3C2)cc(C)c1NC(=O)CC(C)(C)C` [Compound 023, N-(4-(8-fluoro-1,2,3,5-tetrahydro-4H-benzo[e][1,4]diazepin-4-yl)-2,6-dimethylphenyl)-3,3-dimethylbutanamide], for which the activation at 3 µM is more than 100%.
In the case of `Cc1cc(N2CCN(C)c3cc(F)ccc3C2)cc(C)c1NC(=O)CC(C)(C)C` [Compound 024, N-(4-(8-fluoro-1-methyl-1,2,3,5-tetrahydro-4H-benzo[e][1,4]diazepin-4-yl)-2,6-dimethylphenyl)-3,3-dimethylbutanamide], the activation at 3 µM was in the range of 50 to 100%.
`Cc1cc(N2CCSc3cc(F)ccc3C2)cc(C)c1NC(=O)CC(C)(C)C` [Compound 025, N-(4-(8-fluoro-2,3-dihydrobenzo[f][1,4]thiazepin-4(5H)-yl)-2,6-dimethylphenyl)-3,3-dimethylbutanamide]: the activation at 3 µM was more than 100%.
Same read-out and setting: the value for `Cc1cc(N2CCS(=O)(=O)c3cc(F)ccc3C2)cc(C)c1NC(=O)CC(C)(C)C` [Compound 026, N-(4-(8-fluoro-1,1-dioxido-2,3-dihydrobenzo[f][1,4]thiazepin-4(5H)-yl)-2,6-dimethylphenyl)-3,3-dimethylbutanamide] was more than 100%.
On to `Cc1cc(N2CC=Cc3cc(F)ccc3C2)cc(C)c1NC(=O)CC(C)(C)C` [Compound 027, N-(4-(7-fluoro-1,3-dihydro-2H-benzo[c]azepin-2-yl)-2,6-dimethylphenyl)-3,3-dimethylbutanamide], for which the activation at 0.05 µM is less than 50% and the activation at 3 µM is more than 100%.
With `CC1=CCN(c2cc(C)c(NC(=O)CC(C)(C)C)c(C)c2)Cc2ccc(F)cc21` [Compound 028, N-(4-(7-fluoro-5-methyl-1,3-dihydro-2H-benzo[c]azepin-2-yl)-2,6-dimethylphenyl)-3,3-dimethylbutanamide], the activation at 0.05 µM was less than 50% and the activation at 3 µM was 50 to 100%.
As for `Cc1c(NC(=O)CC(C)(C)C)ccc(N2CCCc3cc(F)ccc3C2)c1F` [Compound 029, N-(3-fluoro-4-(7-fluoro-1,3,4,5-tetrahydro-2H-benzo[c]azepin-2-yl)-2-methylphenyl)-3,3-dimethylbutanamide], the activation at 3 µM was in the range of 50 to 100%.
The same measure, in the same setting: the value for `Cc1cc(N2CCCc3cc(F)ccc3C2)c(C)c(C)c1NC(=O)CC(C)(C)C` [Compound 030, N-(4-(7-fluoro-1,3,4,5-tetrahydro-2H-benzo[c]azepin-2-yl)-2,3,6-trimethylphenyl)-3,3-dimethylbutanamide] was 50 to 100%.
The same measure, in the same setting: for `Cc1cc(N2CCCc3cc(F)ccc3C2)c(Cl)c(C)c1NC(=O)CC(C)(C)C` [Compound 031, N-(3-chloro-4-(7-fluoro-1,3,4,5-tetrahydro-2H-benzo[c]azepin-2-yl)-2,6-dimethylphenyl)-3,3-dimethylbutanamide] the value was more than 100%; for `Cc1cc(N2CCCc3cc(OC(C)C(F)(F)F)c(F)cc3C2)cc(C)c1NC(=O)CC(C)(C)C` (centres unmarked) [Compound 034, N-(4-(8-fluoro-7-((1,1,1-trifluoropropan-2-yl)oxy)-1,3,4,5-tetrahydro-2H-benzo[c]azepin-2-yl)-2,6-dimethylphenyl)-3,3-dimethylbutanamide], more than 100%.
With `Cc1cc(N2CCCc3cc(O[C@@H](C)C(F)(F)F)c(F)cc3C2)cc(C)c1NC(=O)CC(C)(C)C` [Compound 036, (S)—N-(4-(8-fluoro-7-((1,1,1-trifluoropropan-2-yl)oxy)-1,3,4,5-tetrahydro-2H-benzo[c]azepin-2-yl)-2,6-dimethylphenyl)-3,3-dimethylbutanamide], the activation at 3 µM is more than 100%.
